Experimental data from patent US9221756B2, “Pyrrole derivatives” (priority 2011, dated 2015).

What was measured:
[1] = format: in vitro ADME; details: human plasma; for [ ] (μM) t0 min. Prodrug (Human) / [ ] (μM) t15 min. Prodrug (Human) / [ ] (μM) t30 min. Prodrug (Human) / [ ] (μM) t60 min. Prodrug (Human) / [ ] (μM) t120 min. Prodrug (Human): 37° C., 10 μM start, prodrug remaining; for [ ] (μM) t15 min. Prodrug (Human): 15 min; for [ ] (μM) t30 min. Prodrug (Human): 30 min; for [ ] (μM) t60 min. Prodrug (Human): 60 min; for [ ] (μM) t120 min. Prodrug (Human): 120 min
Description: (§1) The samples were then analysed by LC-MS/MS to obtain the amount of active compound appearing and prodrug derivative remaining over time. The mouse plasma assay system is considered to be a good model for human behaviour. Nevertheless data obtained in a human plasma assay system was obtained in some cases.
(§2) Prodrug derivatives were assessed in the mouse and human plasma stability assay at a concentration of 10 μM. Test compounds were diluted in DMSO to a final stock concentration of 10 mM. For the purpose of the assay, the stocks prepared were further diluted in DMSO to a concentration of 400 μM and […] were added to 195 μl of mouse or human plasma (pH 7.4) and then incubated at 37° C. The final concentration of DMSO in the plate was 2.5% (v/v). Reactions were terminated at 0, 15, 30, 60 and 120 min after incubation by adding 400 μl of acetonitrile containing 0.55 μM metoprolol and 1% (v/v) formic acid. The plate was then centrifuged at 3000 rpm, for 45 min, at 4° C. 80 μl of supernatant were transferred into a conical bottom 96 well glass coated plate. 40 μl of water were added prior to analysis for prodrug derivative and active species by LC-MS/MS. This assay was performed by a contract research organisation, Cyprotex Discovery Limited, UK, at the request of the inventors at Leicester.
(§3) (1) The active compound was quantified using a 6 point calibration curve prepared in deactivated mouse and human plasma. (2) The percentage of parent compound remaining at each time point relative to 0 min sample was calculated from LC-MS/MS peak area ratios (compound peak area/internal standard peak area). This percentage was then used to determine the concentration of the parent compound at each time point in reference to the starting concentration (10 μM) at time 0 min.

pneumolysin [2] = target: T1, pneumolysin (Streptococcus pneumoniae serotype 2, UniProt Q04IN8); assay: Inhibition of the haemolytic activity of pneumolysin (sheep erythrocytes); format: cell-based; details: IC50, inhibition of pneumolysin-induced haemolysis of sheep erythrocytes
[3] = Conversion of prodrug derivatives to active inhibitors in mouse plasma; format: in vitro ADME; details: 37° C., 10 μM start, prodrug remaining; for [ ] (μM) t0 min. Prodrug: 0 min; for [ ] (μM) t15 min. Prodrug: 15 min; for [ ] (μM) t30 min. Prodrug: 30 min; for [ ] (μM) t60 min. Prodrug: 60 min; for [ ] (μM) t120 min. Prodrug: 120 min
Description: as §1, §2, §3

Listeriolysin O (LLO) = Listeriolysin O (LLO) (Listeria monocytogenes serovar 1/2a, UniProt P13128); assay: Inhibition of the haemolytic activity of Listeriolysin O; format: cell-based; details: toxin LLO; haemolysis assay protocol of Section A
pneumolysin [4] = target: T1, pneumolysin; assay: Ex vivo meningitis assay: effect of pneumolysin on ciliary function of cultured ependymal cells; format: cell-based; details: rat ependymal cells; UL2-001 2.00 μM; FIG. 3
Text: The ependymal ciliated cells line the cerebral ventricles of the brain and the central canal of the spinal cord and are covered with cilia responsible for the circulation of the cerebrospinal fluid (CSF) around the central nervous system. This layer acts as a selective brain barrier to and from the cerebrospinal fluid and plays a role in controlling the CSF volume. […] This model is based on culturing and differentiating ciliated ependymal cells from neonate rat brains, which recreate the in vivo situation, where cells lining the brain ventricles, are exposed to S. pneumoniae and its toxic products.
Ependymal cell cultures were prepared by the method previously described [Microb. Pathog. (1999) 27 303-309]. Tissue culture trays were coated with bovine fibronectin and incubated at 37° C. in 5% (v/v) CO2 for 2 h before use. […]
After approximately two weeks, the cells were fully ciliated and ready for experiments. […] Beating cilia were recorded before and after exposure over 30 min, with a digital high-speed video camera at a rate of 500 frames/s. The recorded video sequences were played back at reduced frame rates and the ciliary beat frequency (CBF) was determined by the following equation: […]

Perfringolysin O (PFO) = Perfringolysin O (PFO) (Clostridium perfringens, UniProt P0C2E9); assay: cell-based
[5] = test system: Streptococcus pneumoniae strain D39; assay: In vivo efficacy assay using a mouse pneumonia model; details: MF1 mice; 0.8 mg/kg intranasally every 6 h; 36 h to 60 h post-infection; p<0.05; FIG. 9
Streptolysin O (SLO) = target: T2, Streptolysin O (SLO) (Streptococcus pyogenes serotype M3, UniProt P0DF97); assay: Inhibition of the haemolytic activity of Streptolysin O; format: cell-based, Group A Streptococci; details: toxin SLO; haemolysis assay protocol of Section A
T2 sequence (P0DF97 34-571): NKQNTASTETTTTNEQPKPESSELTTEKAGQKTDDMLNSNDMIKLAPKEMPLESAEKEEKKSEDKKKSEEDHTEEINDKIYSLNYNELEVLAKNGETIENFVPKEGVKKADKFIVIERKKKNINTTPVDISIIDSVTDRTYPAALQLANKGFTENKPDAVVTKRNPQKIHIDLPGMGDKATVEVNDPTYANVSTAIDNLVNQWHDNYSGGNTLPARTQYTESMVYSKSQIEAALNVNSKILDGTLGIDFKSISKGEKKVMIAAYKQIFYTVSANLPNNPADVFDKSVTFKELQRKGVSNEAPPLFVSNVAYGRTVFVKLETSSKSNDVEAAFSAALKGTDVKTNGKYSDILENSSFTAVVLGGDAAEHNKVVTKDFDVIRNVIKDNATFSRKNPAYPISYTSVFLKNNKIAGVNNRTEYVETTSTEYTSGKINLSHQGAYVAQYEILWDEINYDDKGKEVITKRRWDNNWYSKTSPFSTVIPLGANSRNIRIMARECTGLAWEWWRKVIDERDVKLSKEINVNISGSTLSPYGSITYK

Suilysin (SLY) = Suilysin (SLY) (Streptococcus suis, UniProt Q55996); assay: Inhibition of the haemolytic activity of Suilysin; format: cell-based; details: toxin SLY; haemolysis assay protocol of Section A
Anthrolysin O (ALO) = Anthrolysin O (ALO) (Bacillus anthracis, UniProt A0A6L7HHW7); assay: cell-based
Anthrolysin O (ALO), sequence (A0A6L7HHW7 35-512 limits assumed): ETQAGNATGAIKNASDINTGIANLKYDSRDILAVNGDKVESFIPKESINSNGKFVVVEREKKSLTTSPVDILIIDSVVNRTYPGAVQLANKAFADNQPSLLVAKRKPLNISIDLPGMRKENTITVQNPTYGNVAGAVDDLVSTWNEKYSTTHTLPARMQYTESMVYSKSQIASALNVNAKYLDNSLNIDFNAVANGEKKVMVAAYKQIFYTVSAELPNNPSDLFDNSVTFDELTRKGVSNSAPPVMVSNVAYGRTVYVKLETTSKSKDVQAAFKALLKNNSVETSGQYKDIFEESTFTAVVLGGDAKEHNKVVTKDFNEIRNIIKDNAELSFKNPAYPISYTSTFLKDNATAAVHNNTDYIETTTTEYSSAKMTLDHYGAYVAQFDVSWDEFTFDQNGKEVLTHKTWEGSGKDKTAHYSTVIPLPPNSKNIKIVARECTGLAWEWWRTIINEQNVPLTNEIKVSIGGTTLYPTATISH

T1 sequence (Q04IN8 whole entry): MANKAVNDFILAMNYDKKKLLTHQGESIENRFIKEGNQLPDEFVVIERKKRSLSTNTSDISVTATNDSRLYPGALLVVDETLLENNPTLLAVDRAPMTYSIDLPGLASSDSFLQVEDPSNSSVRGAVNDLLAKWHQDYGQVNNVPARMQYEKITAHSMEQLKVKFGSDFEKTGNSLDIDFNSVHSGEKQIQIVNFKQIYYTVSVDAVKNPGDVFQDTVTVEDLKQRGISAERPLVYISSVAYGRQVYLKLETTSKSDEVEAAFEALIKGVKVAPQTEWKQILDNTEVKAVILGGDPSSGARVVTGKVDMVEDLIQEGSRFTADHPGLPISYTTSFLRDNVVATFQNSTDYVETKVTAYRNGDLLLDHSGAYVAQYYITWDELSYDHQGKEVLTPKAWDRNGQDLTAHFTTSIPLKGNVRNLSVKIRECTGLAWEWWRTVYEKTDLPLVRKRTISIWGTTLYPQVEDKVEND
Listeriolysin O (LLO), sequence (P13128 25-529): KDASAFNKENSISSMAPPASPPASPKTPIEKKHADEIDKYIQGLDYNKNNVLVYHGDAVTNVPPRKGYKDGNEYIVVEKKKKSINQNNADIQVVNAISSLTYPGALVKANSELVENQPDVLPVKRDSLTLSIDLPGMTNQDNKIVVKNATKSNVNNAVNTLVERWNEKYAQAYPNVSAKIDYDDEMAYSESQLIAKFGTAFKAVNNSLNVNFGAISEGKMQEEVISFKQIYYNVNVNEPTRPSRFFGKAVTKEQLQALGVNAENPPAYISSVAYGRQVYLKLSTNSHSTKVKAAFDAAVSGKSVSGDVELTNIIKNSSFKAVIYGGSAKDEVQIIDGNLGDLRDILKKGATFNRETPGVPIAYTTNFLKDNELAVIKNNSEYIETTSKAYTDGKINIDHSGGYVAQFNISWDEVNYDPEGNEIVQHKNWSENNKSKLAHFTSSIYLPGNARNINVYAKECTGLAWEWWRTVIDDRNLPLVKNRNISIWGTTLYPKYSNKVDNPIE
Perfringolysin O (PFO), sequence (P0C2E9 29-500 limits assumed): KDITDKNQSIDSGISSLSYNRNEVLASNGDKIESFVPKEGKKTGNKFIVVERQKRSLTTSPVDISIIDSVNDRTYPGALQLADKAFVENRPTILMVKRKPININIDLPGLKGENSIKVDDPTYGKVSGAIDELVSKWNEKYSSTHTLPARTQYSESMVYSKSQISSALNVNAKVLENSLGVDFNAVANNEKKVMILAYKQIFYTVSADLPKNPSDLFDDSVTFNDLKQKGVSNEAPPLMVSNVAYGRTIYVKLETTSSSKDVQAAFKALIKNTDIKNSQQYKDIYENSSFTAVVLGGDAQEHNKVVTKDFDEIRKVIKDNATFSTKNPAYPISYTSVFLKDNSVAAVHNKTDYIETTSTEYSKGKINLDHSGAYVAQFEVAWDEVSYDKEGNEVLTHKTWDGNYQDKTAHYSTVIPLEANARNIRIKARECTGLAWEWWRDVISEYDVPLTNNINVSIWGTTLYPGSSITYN
Suilysin (SLY), sequence (Q55996 28-497 limits assumed): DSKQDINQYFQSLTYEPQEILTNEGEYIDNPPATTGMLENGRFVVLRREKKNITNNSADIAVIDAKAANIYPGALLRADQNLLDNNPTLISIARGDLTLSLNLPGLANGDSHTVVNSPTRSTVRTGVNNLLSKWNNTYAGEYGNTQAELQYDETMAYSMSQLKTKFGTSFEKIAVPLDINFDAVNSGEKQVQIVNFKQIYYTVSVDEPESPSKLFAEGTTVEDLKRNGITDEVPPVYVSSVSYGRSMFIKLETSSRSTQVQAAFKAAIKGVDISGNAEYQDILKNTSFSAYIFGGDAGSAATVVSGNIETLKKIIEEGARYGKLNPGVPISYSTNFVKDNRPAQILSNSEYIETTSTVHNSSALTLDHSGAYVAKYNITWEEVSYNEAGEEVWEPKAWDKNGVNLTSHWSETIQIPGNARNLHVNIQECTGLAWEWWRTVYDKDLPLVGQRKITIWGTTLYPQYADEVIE

Row | SMILES | [ ] (μM) t0 min. Active (Human) (UL1-012) ([1]; 10 μM prodrug, active UL1-012 appearing, 0 min) | [ ] (μM) t0 min. Prodrug (Human) ([1]; 0 min) [µM] | [ ] (μM) t15 min. Prodrug (Human) [1] [µM] | [ ] (μM) t30 min. Prodrug (Human) [1] [µM] | [ ] (μM) t60 min. Prodrug (Human) [1] [µM] | [ ] (μM) t120 min. Prodrug (Human) [1] [µM] | IC50 (pneumolysin [2]; class symbols of Table 1) [µM] | [ ] (μM) t0 min. Prodrug [3] [µM] | [ ] (μM) t15 min. Prodrug [3] [µM] | [ ] (μM) t30 min. Prodrug [3] [µM] | [ ] (μM) t60 min. Prodrug [3] [µM] | [ ] (μM) t120 min. Prodrug [3] [µM] | IC50 (Listeriolysin O (LLO)) [µM] | ciliary beating frequency (CBF) in the presence of pneumolysin (pneumolysin [4]) | IC50 (Perfringolysin O (PFO)) [µM] | percentage of survival [5] [%] | IC50 (Streptolysin O (SLO)) [µM] | IC50 (Suilysin (SLY)) [µM] | IC50 (Anthrolysin O (ALO)) [µM] | IC50 (pneumolysin [2]; specific values) [µM]
1 | CCOC(=O)c1c(OC(=O)C(C)(C)COCCOCCOC)c(OC(=O)C(C)(C)COCCOCCOC)c(C(=O)N(C)C)n1-c1ccc(OC)cc1 [UL1-111, 2-(dimethylcarbamoyl)-5-(ethoxycarbonyl)-1-(4-methoxyphenyl)-1H-pyrrole-3,4-diyl bis(3-(2-(2-methoxyethoxy)ethoxy)-2,2-dimethylpropanoate)] | <LOQ | 10 | 2.84 | 0.80 | 0.09 | 0.00 | < 10 | 10 | 4.74 | 2.47 | 1.16 | 0.47 |  |  |  |  |  |  |  | 
2 | COc1ccc(-n2c(C(=O)N(C)C)c(OC(=O)C(C)C)c(OC(=O)C(C)C)c2C(=O)N(C)C)cc1 [UL1-114, 2,5-bis(dimethylcarbamoyl)-1-(4-methoxyphenyl)-1H-pyrrole-3,4-diyl bis(2-methylpropanoate)] |  | 10 | 9.53 | 9.48 | 8.22 | 7.22 | 10 to 20 | 10 | 0 | 0 | 0 | 0 |  |  |  |  |  |  |  | 
3 | CCOC(=O)c1c(OCOP(=O)(O)O)c(O)c(C(=O)N(C)C)n1-c1ccc(OC)cc1 [UL1-115, ethyl 5-(dimethylcarbamoyl)-4-hydroxy-1-(4-methoxyphenyl)-3-((phosphonooxy)methoxy)-1H-pyrrole-2-carboxylate] |  | 10 | 10.8 | 9.41 | 6.69 | 2.98 | 20 to 60 | 10 | 7.56 | 4.04 | 1.54 | 0.38 |  |  |  |  |  |  |  | 
4 | CCOC(=O)c1c(OC(=O)C(C)(C)COCCOCCOP(=O)(O)O)c(OC(=O)C(C)(C)COCCOCCOP(=O)(O)O)c(C(=O)N(C)C)n1-c1ccc(OC)cc1 [UL1-117, 2-(dimethylcarbamoyl)-5-(ethoxycarbonyl)-1-(4-methoxyphenyl)-1H-pyrrole-3,4-diyl bis(2,2-dimethyl-3-(2-(2-(phosphonooxy)ethoxy)ethoxy)propanoate)] |  | 10 | 14.9 | 10.1 | 4.28 | 1.12 | 10 to 20 | 10 | 5.92 | 4.26 | 1.41 | 0.21 |  |  |  |  |  |  |  | 
5 | CCOC(=O)c1c(O)c(O)c(C(=O)OCC)n1-c1ccc(OC)cc1 [UL2-001, diethyl 3,4-dihydroxy-1-(4-methoxyphenyl)-1H-pyrrole-2,5-dicarboxylate] |  |  |  |  |  |  | < 10 |  |  |  |  |  | < 10 | No significant loss of the CBF | < 10 | 60 | 20 to 60 | < 10 | < 10 | 0.3
